compound: Cc1ccc(Nc2nccc(N(C)c3ccc4c(C)n(C)nc4c3)n2)cc1S(N)(=O)=O [Pazopanib] + COc1cc2c(Oc3ccc(NC(=O)C4(C(=O)Nc5ccc(F)cc5)CC4)cc3F)ccnc2cc1OCCCN1CCOCC1 [Foretinib] (partner 0.25 µM); test: relative viability (nuclei count vs DMSO), 5 days (fraction); higher = more cells survive; settings: first compound 0.01 µM
In short: (§1)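 The day after seeding in 1536-well plates, lung cancer cell lines were treated by pin tool with a single drug, or with a fixed anchor-drug dose together with five library-drug doses (not always all listed) in √10 steps. After 5 days, a combined fix-and-stain solution (final 0.05% Triton X-100, 1% formaldehyde, 1 ug/ml Hoechst) was added. Nuclei counted on 4× images gave relative viability as treated counts over vehicle counts, reported as the median of duplicate plates.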

Cell Line | relative viability
LU99A | 0.772
HARA | 0.902
HCC-78 | 0.523
NCI-H441 | 0.974
LCLC-97TM1 | 0.908
NCI-H2009 | 1.2
A-427 | 0.971
NCI-H460 | 0.942
NCI-H1734 | 0.829
NCI-H520 | 0.675
NCI-H2405 | 0.997
SW 1573 | 0.83
201T | 1.13
NCI-H1915 | 1.04
HCC-827 | 1.07
LXF-289 | 1.06
NCI-H23 | 1.1
CAL-12T | 1.03
NCI-H1651 | 0.836
NCI-H2228 | 0.938
NCI-H1355 | 0.804
NCI-H322M | 0.908
NCI-H1437 | 1.33
NCI-H1755 | 0.79
HCC-15 | 0.999
PC-3 [JPC-3] | 1.05
EKVX | 0.961
LC-2-ad | 0.888

same assay, conditions: first compound 0.03162 µM

Cell Line | relative viability
LU99A | 0.906
BEN | 0.656
HARA | 0.977
HCC-78 | 0.553
NCI-H441 | 1.14
LCLC-97TM1 | 0.976
NCI-H2009 | 1.16
A-427 | 1.21
NCI-H460 | 1.07
NCI-H1734 | 0.948
NCI-H520 | 1.02
NCI-H2405 | 1.13
SW 1573 | 0.938
NCI-H1793 | 0.478
201T | 1.09
NCI-H1915 | 1.09
HCC-827 | 0.992

Cell Line | relative viability
LXF-289 | 1.06
NCI-H23 | 1.02
CAL-12T | 1.06
NCI-H1651 | 0.734
EPLC-272H | 0.762
NCI-H2228 | 1.01
NCI-H1355 | 1
NCI-H322M | 1.25
NCI-H1437 | 1.25
NCI-H1755 | 0.868
NCI-H2023 | 0.886
HCC-15 | 1.01
NCI-H1944 | 0.94
PC-3 [JPC-3] | 1.01
EKVX | 0.866
LC-2-ad | 0.927

same assay, conditions: first compound 0.1 µM

Cell Line | relative viability
LU99A | 0.878
BEN | 0.517
HARA | 1
HCC-78 | 0.524
NCI-H441 | 0.859
LCLC-97TM1 | 1.03
NCI-H2009 | 1.19
A-427 | 1.15
NCI-H460 | 1.01
NCI-H1734 | 0.873
NCI-H520 | 0.688
NCI-H2405 | 1.11
SW 1573 | 0.934
NCI-H1793 | 0.628
201T | 1.1
NCI-H1915 | 1.1
HCC-827 | 1.05

Cell Line | relative viability
LXF-289 | 1.08
NCI-H23 | 0.964
CAL-12T | 1.17
NCI-H1651 | 0.817
EPLC-272H | 0.693
NCI-H2228 | 0.764
NCI-H1355 | 1.08
NCI-H322M | 0.921
NCI-H1437 | 1.16
NCI-H1755 | 0.896
NCI-H2023 | 0.77
HCC-15 | 1.16
NCI-H1944 | 0.905
PC-3 [JPC-3] | 1.12
EKVX | 0.62
LC-2-ad | 1.05

same assay, conditions: first compound 0.3162 µM

Cell Line | relative viability
LU99A | 0.864
BEN | 0.804
HARA | 0.884
HCC-78 | 0.638
NCI-H441 | 1
LCLC-97TM1 | 0.909
NCI-H2009 | 1.15
A-427 | 1.02
NCI-H460 | 1.03
NCI-H1734 | 0.893
NCI-H520 | 0.799
NCI-H2405 | 1.11
SW 1573 | 0.998
NCI-H1793 | 0.867
201T | 1.15
NCI-H1915 | 1.06
HCC-827 | 1.06

Cell Line | relative viability
LXF-289 | 0.99
NCI-H23 | 0.947
CAL-12T | 1.05
NCI-H1651 | 0.773
EPLC-272H | 0.758
NCI-H2228 | 0.792
NCI-H1355 | 0.979
NCI-H322M | 0.966
NCI-H1437 | 1.21
NCI-H1755 | 0.872
NCI-H2023 | 0.849
HCC-15 | 1.01
NCI-H1944 | 0.861
PC-3 [JPC-3] | 1.06
EKVX | 0.901
LC-2-ad | 0.967

same assay, conditions: first compound 1 µM

Cell Line | relative viability
LU99A | 0.837
BEN | 0.696
HARA | 0.95
HCC-78 | 0.701
NCI-H441 | 0.857
LCLC-97TM1 | 0.905
NCI-H2009 | 1.06
A-427 | 1.05
NCI-H460 | 0.997
NCI-H1734 | 0.926
NCI-H520 | 0.936
NCI-H2405 | 1.08
SW 1573 | 0.998
NCI-H1793 | 0.938
201T | 0.996
NCI-H1915 | 0.983
HCC-827 | 0.969

Cell Line | relative viability
LXF-289 | 0.996
NCI-H23 | 1.12
CAL-12T | 0.97
NCI-H1651 | 0.895
EPLC-272H | 0.793
NCI-H2228 | 0.993
NCI-H1355 | 1
NCI-H322M | 0.93
NCI-H1437 | 1.31
NCI-H1755 | 0.874
NCI-H2023 | 0.893
HCC-15 | 1.08
NCI-H1944 | 0.986
PC-3 [JPC-3] | 0.995
EKVX | 0.942
LC-2-ad | 1.04

compound: Cc1ccc(Nc2nccc(N(C)c3ccc4c(C)n(C)nc4c3)n2)cc1S(N)(=O)=O [Pazopanib] + Nc1nc2[nH]cc(CCc3ccc(C(=O)N[C@@H](CCC(=O)O)C(=O)O)cc3)c2c(=O)[nH]1 [Pemetrexed] (partner 0.2 µM); test: as above; settings: first compound 0.01 µM
In short: as §1

Cell Line | relative viability
BEN | 0.67
HARA | 0.245
NCI-H441 | 0.236
NCI-H2009 | 1.06
A-427 | 0.942
NCI-H460 | 0.0583
NCI-H1734 | 0.435
NCI-H520 | 0.642
NCI-H2405 | 0.97
SW 1573 | 0.831
201T | 0.369
NCI-H1915 | 0.509
HCC-827 | 0.272
LXF-289 | 1.01
NCI-H23 | 0.529
CAL-12T | 1.13
NCI-H1651 | 0.6
EPLC-272H | 0.313
NCI-H2228 | 0.366
NCI-H1355 | 0.84
NCI-H322M | 0.703
NCI-H1437 | 0.327
NCI-H1755 | 0.438
NCI-H2023 | 0.18
HCC-15 | 0.215
NCI-H1944 | 0.562
EKVX | 0.37
LC-2-ad | 0.292

same assay, conditions: first compound 0.03162 µM

Cell Line | relative viability
LU99A | 0.19
BEN | 0.803
HARA | 0.244
HCC-78 | 0.934
NCI-H441 | 0.274
LCLC-97TM1 | 0.165
NCI-H2009 | 1.06
A-427 | 1.04
NCI-H460 | 0.0636
NCI-H1734 | 0.396
NCI-H520 | 0.728
NCI-H2405 | 1.11
SW 1573 | 0.899
NCI-H1793 | 0.864
201T | 0.331
NCI-H1915 | 0.442
HCC-827 | 0.211

Cell Line | relative viability
LXF-289 | 0.899
NCI-H23 | 0.727
CAL-12T | 1.3
NCI-H1651 | 0.603
EPLC-272H | 0.461
NCI-H2228 | 0.337
NCI-H1355 | 1.02
NCI-H322M | 0.662
NCI-H1437 | 0.333
NCI-H1755 | 0.427
NCI-H2023 | 0.206
HCC-15 | 0.226
NCI-H1944 | 0.635
PC-3 [JPC-3] | 0.993
EKVX | 0.403
LC-2-ad | 0.281

same assay, conditions: first compound 0.1 µM

Cell Line | relative viability
LU99A | 0.182
BEN | 0.706
HARA | 0.242
HCC-78 | 0.899
NCI-H441 | 0.272
LCLC-97TM1 | 0.136
NCI-H2009 | 0.977
A-427 | 0.934
NCI-H460 | 0.0629
NCI-H1734 | 0.468
NCI-H520 | 0.768
NCI-H2405 | 1.17
SW 1573 | 0.792
NCI-H1793 | 0.949
201T | 0.318
NCI-H1915 | 0.472
HCC-827 | 0.259

Cell Line | relative viability
LXF-289 | 0.904
NCI-H23 | 0.702
CAL-12T | 1.37
NCI-H1651 | 0.574
EPLC-272H | 0.318
NCI-H2228 | 0.296
NCI-H1355 | 1.1
NCI-H322M | 0.633
NCI-H1437 | 0.328
NCI-H1755 | 0.458
NCI-H2023 | 0.271
HCC-15 | 0.223
NCI-H1944 | 0.67
PC-3 [JPC-3] | 0.957
EKVX | 0.377
LC-2-ad | 0.274

same assay, conditions: first compound 0.3162 µM

Cell Line | relative viability
LU99A | 0.185
BEN | 0.8
HARA | 0.207
HCC-78 | 0.839
NCI-H441 | 0.224
LCLC-97TM1 | 0.157
NCI-H2009 | 0.971
A-427 | 1.05
NCI-H460 | 0.0703
NCI-H1734 | 0.436
NCI-H520 | 0.755
NCI-H2405 | 1.14
SW 1573 | 0.857
NCI-H1793 | 0.76
201T | 0.333
NCI-H1915 | 0.467
HCC-827 | 0.273

Cell Line | relative viability
LXF-289 | 0.845
NCI-H23 | 0.658
CAL-12T | 1.08
NCI-H1651 | 0.542
EPLC-272H | 0.332
NCI-H2228 | 0.348
NCI-H1355 | 1.02
NCI-H322M | 0.623
NCI-H1437 | 0.296
NCI-H1755 | 0.456
NCI-H2023 | 0.22
HCC-15 | 0.209
NCI-H1944 | 0.724
PC-3 [JPC-3] | 1.06
EKVX | 0.35
LC-2-ad | 0.311

same assay, conditions: first compound 1 µM

Cell Line | relative viability
LU99A | 0.136
BEN | 0.834
HARA | 0.237
HCC-78 | 0.927
NCI-H441 | 0.253
LCLC-97TM1 | 0.154
NCI-H2009 | 0.925
A-427 | 1.05
NCI-H460 | 0.0742
NCI-H1734 | 0.432
NCI-H520 | 0.602
NCI-H2405 | 1.41
SW 1573 | 0.861
NCI-H1793 | 1.09
201T | 0.323
NCI-H1915 | 0.474
HCC-827 | 0.247
LXF-289 | 0.848
